Laboratory results from paper PMC11887051, “Discovery of ONO-2920632 (VU6011887): A Highly Selective and CNS Penetrant TREK-2 (TWIK-Related K+ Channel 2) Preferring Activator In Vivo Tool Compound” (ACS Chemical Neuroscience, 2025).

Experiments:
[1] = target: T1, TREK-1 (Homo sapiens, UniProt O95069); test: human 86Rb flux K2P selectivity panel; assay type: cell-based; conditions: data is not shown
T1 sequence (O95069 1-426): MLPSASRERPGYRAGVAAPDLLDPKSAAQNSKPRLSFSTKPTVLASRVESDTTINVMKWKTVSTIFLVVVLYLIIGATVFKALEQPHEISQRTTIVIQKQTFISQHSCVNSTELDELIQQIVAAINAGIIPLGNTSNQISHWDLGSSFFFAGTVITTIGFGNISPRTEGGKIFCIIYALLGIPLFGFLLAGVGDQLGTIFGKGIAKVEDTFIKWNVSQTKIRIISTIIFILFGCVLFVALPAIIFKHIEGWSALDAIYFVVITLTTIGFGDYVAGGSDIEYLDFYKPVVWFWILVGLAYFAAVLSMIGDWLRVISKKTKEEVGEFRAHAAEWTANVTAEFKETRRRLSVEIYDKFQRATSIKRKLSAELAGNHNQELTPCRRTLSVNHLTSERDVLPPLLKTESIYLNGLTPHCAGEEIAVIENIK

[2] = target: Serotonin (5-HT2B) (Homo sapiens, UniProt P41595); test: Eurofins Lead Profiling radioligand binding; conditions: title: 30 μM
[3] = target: Melatonin MT1 (Homo sapiens, UniProt P48039); test: Eurofins Lead Profiling radioligand binding; conditions: title: 30 μM
Chain of Melatonin MT1 (P48039 whole entry): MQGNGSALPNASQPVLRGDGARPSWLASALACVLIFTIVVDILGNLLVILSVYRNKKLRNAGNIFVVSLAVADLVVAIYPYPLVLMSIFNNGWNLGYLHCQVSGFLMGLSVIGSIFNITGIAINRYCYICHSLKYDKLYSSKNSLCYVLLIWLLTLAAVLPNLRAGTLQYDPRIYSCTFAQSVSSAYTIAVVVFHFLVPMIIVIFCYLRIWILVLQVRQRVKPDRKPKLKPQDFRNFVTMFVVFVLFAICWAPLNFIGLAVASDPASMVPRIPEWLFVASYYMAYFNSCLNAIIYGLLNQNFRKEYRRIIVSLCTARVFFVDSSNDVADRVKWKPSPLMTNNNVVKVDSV

[4] = dog IV PK study; assay type: in vivo; conditions: male, beagle, plasma, 0.1 mg/kg IV, HP-β-CD solution
Method: Plasma and brain tissue samples originating from in vivo studies were analyzed by electrospray ionization using an AB Sciex Q-TRAP 5500 (Foster City, CA) that was coupled to a Shimadzu LC-20AD pump (Columbia, MD) and a Leap Technologies CTC PAL auto-sampler (Carrboro, NC). Analytes were separated by gradient elution using a C18 column (3 x 50 mm, 3 mm; Fortis Technologies Ltd, Cheshire, UK) that was thermostated at 40 °C. HPLC mobile phase A was 0.1% formic acid in water (pH unadjusted); mobile phase B was 0.1% formic acid in acetonitrile (pH […]
min, with an isocratic hold for 0.5 min, before transitioning to 10% B over 0.05 min. The column was re-equilibrated (1 min) before the next sample injection. The total run time was 2.55 min, and the HPLC flow rate was 0.5 ml/min. The source temperature was set at 500 °C, and mass spectral analyses were performed using a Turbo-Ion spray source in positive ionization mode (5.0-kV spray voltage) and using multiple-reaction monitoring of transitions specific for the analytes. All data were analyzed using AB Sciex Analyst 1.5.1 software. […]
For determination of the plasma concentration-time profile, compounds were formulated in methyl cellulose and administered as a 3 mg/kg PO dose to male C57BL/6 mouse or SD rat (n = 2). For the same determination, compounds were formulated in HP-β-CD and administered as a 0.1 mg/kg IV dose to male beagle dog (n = 2).
Plasma samples originating from in vivo studies were analyzed by electrospray ionization using a Q-TRAP 5500 (AB Sciex) that was coupled to a Prominence UFLC XR (Shimadzu Corporation).
Analytes were separated by gradient elution using a Shim-pack XR-ODS II (2 x 75 mm, 2.2μm, Shimadzu Corporation) that was thermostated at 40 °C. HPLC mobile phase A was 5 mM ammonium acetate containing 0.2% formic acid in water (pH unadjusted); mobile phase B was […]
hold for 1.5 min, before transitioning to 10% B over 0.1 min. The column was re-equilibrated (0.9 min) before the next sample injection. The total run time was 4.0 min, and the HPLC flow rate was 0.5 ml/min. […]

[5] = test system: Potassium Channel [KATP]; test: Eurofins Lead Profiling radioligand binding; design: species or system Hamster; conditions: title: 30 μM
[6] = target: Adrenergic β1 (Homo sapiens, UniProt P08588); test: Eurofins Lead Profiling radioligand binding; conditions: title: 30 μM
Chain of Adrenergic β1 (P08588 whole entry): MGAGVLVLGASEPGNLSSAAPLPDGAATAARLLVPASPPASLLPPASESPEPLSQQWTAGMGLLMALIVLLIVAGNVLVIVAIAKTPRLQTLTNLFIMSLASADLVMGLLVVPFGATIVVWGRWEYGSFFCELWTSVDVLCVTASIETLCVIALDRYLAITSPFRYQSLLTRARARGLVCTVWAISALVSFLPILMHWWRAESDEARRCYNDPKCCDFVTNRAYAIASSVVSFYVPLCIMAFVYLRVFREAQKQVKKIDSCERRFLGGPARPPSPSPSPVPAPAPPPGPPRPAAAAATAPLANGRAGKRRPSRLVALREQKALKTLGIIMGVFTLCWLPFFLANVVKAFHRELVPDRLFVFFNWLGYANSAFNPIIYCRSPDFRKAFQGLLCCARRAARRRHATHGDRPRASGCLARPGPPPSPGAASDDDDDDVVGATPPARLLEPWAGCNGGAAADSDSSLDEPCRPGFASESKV

[7] = test system: Calcium Channel L-Type, Benzothiazepine; test: Eurofins Lead Profiling radioligand binding; design: species or system Rat; conditions: title: 30 μM
[8] = target: Androgen (Testosterone) (Homo sapiens, UniProt P10275); test: Eurofins Lead Profiling radioligand binding; conditions: title: 30 μM
[9] = test system: Glycine, Strychnine-Sensitive; test: Eurofins Lead Profiling radioligand binding; design: species or system Rat; conditions: title: 30 μM
[10] = target: Transporter, Serotonin (SERT) (Homo sapiens, UniProt P31645); test: Eurofins Lead Profiling radioligand binding; conditions: title: 30 μM
[11] = target: Serotonin (5-HT3) (Homo sapiens, UniProt P46098); test: Eurofins Lead Profiling radioligand binding; conditions: title: 30 μM
[12] = test system: Phorbol Ester; test: Eurofins Lead Profiling radioligand binding; design: species or system Mouse; conditions: title: 30 μM
[13] = test system: Glutamate, Kainate; test: Eurofins Lead Profiling radioligand binding; design: species or system Rat; conditions: title: 30 μM
[14] = target: Tachykinin NK1 (Homo sapiens, UniProt P25103); test: Eurofins Lead Profiling radioligand binding; conditions: title: 30 μM
Chain of Tachykinin NK1 (P25103 whole entry): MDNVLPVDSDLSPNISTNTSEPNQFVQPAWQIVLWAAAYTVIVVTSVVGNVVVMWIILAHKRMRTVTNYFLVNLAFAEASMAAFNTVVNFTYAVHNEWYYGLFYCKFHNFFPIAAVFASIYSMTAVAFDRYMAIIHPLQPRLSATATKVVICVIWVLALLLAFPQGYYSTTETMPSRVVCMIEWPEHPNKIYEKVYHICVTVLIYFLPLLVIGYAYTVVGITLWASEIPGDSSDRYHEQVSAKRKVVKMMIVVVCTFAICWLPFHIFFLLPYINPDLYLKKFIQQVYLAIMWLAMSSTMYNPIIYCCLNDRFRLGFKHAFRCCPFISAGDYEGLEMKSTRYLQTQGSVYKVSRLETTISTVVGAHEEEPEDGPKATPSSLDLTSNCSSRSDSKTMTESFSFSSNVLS

[15] = test system: Glutamate, NMDA, Agonism; test: Eurofins Lead Profiling radioligand binding; design: species or system Rat; conditions: title: 30 μM
[16] = target: Neuropeptide Y Y1 (Homo sapiens, UniProt P25929); test: Eurofins Lead Profiling radioligand binding; conditions: title: 30 μM
Chain of Neuropeptide Y Y1 (P25929 whole entry): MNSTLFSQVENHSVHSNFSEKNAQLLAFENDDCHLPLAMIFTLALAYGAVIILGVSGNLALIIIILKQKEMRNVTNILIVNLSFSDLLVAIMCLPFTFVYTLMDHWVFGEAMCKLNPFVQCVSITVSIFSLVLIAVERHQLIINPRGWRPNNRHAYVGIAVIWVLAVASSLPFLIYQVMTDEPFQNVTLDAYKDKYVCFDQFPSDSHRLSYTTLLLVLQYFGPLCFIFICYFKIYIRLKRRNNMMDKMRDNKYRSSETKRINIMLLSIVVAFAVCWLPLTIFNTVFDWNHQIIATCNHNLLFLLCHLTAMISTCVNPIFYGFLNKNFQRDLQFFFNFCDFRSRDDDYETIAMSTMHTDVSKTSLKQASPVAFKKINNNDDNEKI

[17] = test system: Purinergic P2Y, Non-Selective; test: Eurofins Lead Profiling radioligand binding; design: species or system Rat; conditions: title: 30 μM
[18] = target: Glutamate, NMDA, Glycine (Rattus norvegicus, UniProt P35439); test: Eurofins Lead Profiling radioligand binding; conditions: title: 30 μM
Chain of Glutamate, NMDA, Glycine (P35439 394-800 limits assumed): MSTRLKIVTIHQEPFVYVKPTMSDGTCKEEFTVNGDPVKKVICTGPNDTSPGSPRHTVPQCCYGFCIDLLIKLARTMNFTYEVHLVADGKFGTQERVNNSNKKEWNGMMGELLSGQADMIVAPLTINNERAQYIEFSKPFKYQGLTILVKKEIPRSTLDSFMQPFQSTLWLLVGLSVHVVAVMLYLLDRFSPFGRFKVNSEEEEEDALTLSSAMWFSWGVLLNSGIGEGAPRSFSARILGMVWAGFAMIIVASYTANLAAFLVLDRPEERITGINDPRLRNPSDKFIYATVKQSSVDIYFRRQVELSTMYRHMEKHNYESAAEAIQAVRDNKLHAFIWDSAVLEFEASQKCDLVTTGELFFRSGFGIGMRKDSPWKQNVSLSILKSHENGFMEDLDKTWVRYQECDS

[19] = target: hERG potassium channel (Homo sapiens, UniProt Q12809); test: Eurofins Lead Profiling radioligand binding; conditions: title: 30 μM
Chain of hERG potassium channel (Q12809 whole entry): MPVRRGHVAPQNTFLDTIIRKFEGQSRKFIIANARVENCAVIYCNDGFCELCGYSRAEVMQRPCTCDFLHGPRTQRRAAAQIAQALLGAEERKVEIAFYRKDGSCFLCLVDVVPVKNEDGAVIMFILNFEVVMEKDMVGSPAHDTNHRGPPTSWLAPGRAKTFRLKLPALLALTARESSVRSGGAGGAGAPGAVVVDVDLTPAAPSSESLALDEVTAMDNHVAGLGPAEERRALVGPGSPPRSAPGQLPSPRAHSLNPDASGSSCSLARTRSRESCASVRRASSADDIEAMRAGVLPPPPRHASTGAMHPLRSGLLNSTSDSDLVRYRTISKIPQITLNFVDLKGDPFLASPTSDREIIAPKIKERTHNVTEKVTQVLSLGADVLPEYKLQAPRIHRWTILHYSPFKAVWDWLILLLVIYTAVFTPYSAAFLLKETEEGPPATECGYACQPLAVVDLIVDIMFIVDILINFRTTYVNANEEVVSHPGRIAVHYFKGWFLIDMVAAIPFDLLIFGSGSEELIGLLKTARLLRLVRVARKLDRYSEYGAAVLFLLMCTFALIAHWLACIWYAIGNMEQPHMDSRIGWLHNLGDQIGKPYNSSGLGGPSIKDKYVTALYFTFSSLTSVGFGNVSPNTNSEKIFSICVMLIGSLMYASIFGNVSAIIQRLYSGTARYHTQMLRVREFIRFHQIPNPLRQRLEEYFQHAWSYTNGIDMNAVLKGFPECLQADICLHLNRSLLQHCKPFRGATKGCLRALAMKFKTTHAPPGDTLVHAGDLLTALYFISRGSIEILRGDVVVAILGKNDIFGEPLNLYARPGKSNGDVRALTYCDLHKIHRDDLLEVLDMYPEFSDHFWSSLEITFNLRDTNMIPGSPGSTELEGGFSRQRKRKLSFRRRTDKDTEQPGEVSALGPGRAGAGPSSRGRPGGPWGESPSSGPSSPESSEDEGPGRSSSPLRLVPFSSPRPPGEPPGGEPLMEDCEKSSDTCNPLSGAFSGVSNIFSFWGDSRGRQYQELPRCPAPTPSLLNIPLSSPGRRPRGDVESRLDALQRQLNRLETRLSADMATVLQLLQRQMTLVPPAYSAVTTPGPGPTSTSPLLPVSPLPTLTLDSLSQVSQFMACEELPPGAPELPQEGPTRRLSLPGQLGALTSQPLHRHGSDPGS

[20] = target: Transporter, Dopamine (DAT) (Homo sapiens, UniProt Q01959); test: Eurofins Lead Profiling radioligand binding; conditions: title: 30 μM
[21] = target: Cannabinoid CB1 (Homo sapiens, UniProt P21554); test: Eurofins Lead Profiling radioligand binding; conditions: title: 30 μM
[22] = test system: Glutamate, NMDA, Phencyclidine; test: Eurofins Lead Profiling radioligand binding; design: species or system Rat; conditions: title: 30 μM
[23] = target: Muscarinic M1 (Homo sapiens, UniProt P11229); test: Eurofins Lead Profiling radioligand binding; conditions: title: 30 μM
Chain of Muscarinic M1 (P11229 whole entry): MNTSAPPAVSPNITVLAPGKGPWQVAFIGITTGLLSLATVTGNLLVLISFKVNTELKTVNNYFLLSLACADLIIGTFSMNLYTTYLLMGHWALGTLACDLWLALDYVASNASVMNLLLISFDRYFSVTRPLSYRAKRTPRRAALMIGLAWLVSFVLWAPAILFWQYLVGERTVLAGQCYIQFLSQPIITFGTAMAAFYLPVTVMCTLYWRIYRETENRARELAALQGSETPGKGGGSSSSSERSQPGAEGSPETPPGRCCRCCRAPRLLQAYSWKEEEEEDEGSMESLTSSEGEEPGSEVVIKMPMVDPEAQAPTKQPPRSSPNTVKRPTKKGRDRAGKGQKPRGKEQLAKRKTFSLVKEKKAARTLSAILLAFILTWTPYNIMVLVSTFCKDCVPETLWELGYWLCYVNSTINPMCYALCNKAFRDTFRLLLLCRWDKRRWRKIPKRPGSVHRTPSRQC

[24] = target: T2, hERG (Homo sapiens, UniProt Q12809); test: hERG thallium flux assay; assay type: cell-based; conditions: Tl+ flux assay
T2 construct: expressed in transfected cells; host or cells: HEK293
T2 sequence (Q12809 whole entry): as the sequence (Q12809 whole entry) above

In the case of O=C(NCc1ccc(OC(F)(F)F)cc1F)c1ccc2ncnn2c1 [Compound 19b], the “activity at TREK-1 in 86Rb flux panel” value [1] is reported as “micromolar activity”, the inhibition [2] is reported as 14% and the inhibition [3] is reported as 17%. It also gave a half-life [4] of 22 h, a clearance ([4]; read-out: CLp) of 1.3 mL/min/kg and a Vd ([4]; read-out: Vss) of 2.2 L/kg. For the same compound, the “% Inhibition at 10 µM” value [5] was 13%, the inhibition [6] was 9% and the “% Inhibition at 10 µM” value [7] was 2%. For the same compound, the inhibition [8] was 18%, the “% Inhibition at 10 µM” value [9] was -16% and the inhibition [10] was 2%. The inhibition [11] was 4%, the “% Inhibition at 10 µM” value [12] was 0% and the “% Inhibition at 10 µM” value [13] was 13%. The inhibition [14] was 2%, the “% Inhibition at 10 µM” value [15] was -3% and the inhibition [16] was 2%. The “% Inhibition at 10 µM” value [17] was -7%, the inhibition [18] was -1% and the inhibition [19] was 44%. The inhibition [20] was 14%, the inhibition [21] was 17% and the “% Inhibition at 10 µM” value [22] was 0%. It also gave an inhibition [23] of 1%.
With O=C(NCc1ccc(OC(F)(F)F)cc1Cl)c1ccc2nncn2c1 [Compound 20] the IC50 [24] was greater than 30 µM.
